Here are results for 86 compounds from PubChem BioAssay AID2305 (GlaxoSmithKline (GSK), 2010).

In the assay the test system is P. falciparum 3D7 growth, pLDH absorbance. Kind of assay: P. falciparum 3D7 growth inhibition, dose response, strain 3D7 (AID 2305).

On to `CC(C)(C)NCc1cc(Nc2ccnc3cc(Cl)ccc23)ccc1F`, for which the IC50 worked out at 30 nM. In turn, `NCC1(c2nc(-c3ccc(Cl)c(O)c3)c(-c3ccncc3)[nH]2)CCCCC1` gave an IC50 of 740 nM. Take `Cc1cccc2[nH]c(-c3cccc(-c4cccc(CNCCN5CCNCC5)c4)c3)nc12`: the IC50 turned out to be 970 nM. `COc1ccc2nc3cc(Cl)ccc3c(Nc3ccc(C(=O)O)cc3)c2c1` returned an IC50 of 300 nM. This IC50 is about 3.2-fold lower than that of the compound before. The same measure for `CCn1c(CN2CCC(C)CC2)nc2cc(NC(=O)c3cccs3)ccc21`: 560 nM; for `COc1ccc2ccc(OC)c(CNCCCCCCNCc3c(OC)ccc4ccc(OC)cc34)c2c1`: 700 nM; for `Cc1cc(N2CCNCC2)c2cc(NC(=O)Nc3ccc(Cl)c(Cl)c3)ccc2n1`: 310 nM. As to `CC1CC(NCCCNc2cc(=O)c3ccccc3[nH]2)c2c1cc(Cl)c(Cl)c2Cl` (stereo unspecified), the IC50 came to 840 nM. The same measure for `COCCCNc1nc2cc(OC)c(OC)cc2c2nc(-c3ccccc3)nn12`: 190 nM; for `Cc1ccccc1CNc1noc(-c2c(-c3ccccc3)noc2C)n1`: 900 nM. In turn, `COc1ccc2nc(N3CCN(C(=O)OC(C)(C)C)CC3)nc(NCCCc3ccccc3)c2c1` displayed an IC50 of 690 nM. The same measure for `CCOC(=O)C1=C(C)N=c2sc(=Cc3cc(Cl)ccc3O)c(=O)n2C1c1ccc2c(c1)OCO2` (stereo unspecified): 710 nM; for `CC1(C)N=C(N)N=C(N)N1c1ccc(Br)cc1`: 10 nM. For the compound `CCOc1ccc(Br)cc1/C=C/C(=O)Nc1ccc(C2CCN(C)CC2)cc1`, the concentration for half-maximal inhibition (IC50) came to 450 nM. The same measure for `O=C(NC1CC1)c1cnc(N2CCCC(c3ccccc3)C2)c(Cl)c1` (stereo unspecified): 800 nM; for `CN(C)CCNCc1ccc(-c2ccc(-c3nc4ccccc4[nH]3)s2)cc1`: 570 nM; for `COc1ccc(Cn2c(N3CCN(S(=O)(=O)c4ccc(OC)cc4)CC3)nc3c2c(=O)n(CC2CC2)c(=O)n3CC2CC2)cc1`: 890 nM. Compound `Oc1cc(Nc2ccnc3cc(I)ccc23)c(F)cc1Cl` registered an IC50 of 830 nM. `Cc1ccc(NC(=O)c2ccc3nccnc3c2)cc1OC1CCN(Cc2ccc(F)cc2)CC1`: the half-inhibitory concentration (IC50) was 1010 nM. In turn, `CCCNC(=O)c1ccnc(-c2ccc(CNC3Cc4ccccc4C3)cc2)c1` showed an IC50 of 940 nM.

As to `Cc1noc(C)c1-c1cccc(CNCc2cccc(-c3cccc(-c4nc5ccccc5[nH]4)c3)c2)c1`, the IC50 amounted to 380 nM. The compound `CN(Cc1ccc(C#N)cc1)C1CCN(c2cc(NC(=O)c3ccc(F)cc3)ccn2)CC1` came in with an IC50 of 1430 nM.

Compound `COc1ccc(Nc2ncc(OC)c(Nc3ccccc3C(N)=O)n2)cc1N1CCN(C)CC1` registered a 50% inhibitory concentration (IC50) of 740 nM. Take `CN(C)Cc1ccc2cc(NC(=O)c3ccc(-c4ccc(Cl)cc4)cc3)ccc2c1`: the IC50 was found to be 1340 nM. The same measure for `C[C@@H]1CN(c2cnn(Cc3ccc(NC(=O)Nc4ccc(-c5ccccc5)cc4)cc3)c(=O)c2Cl)C[C@H](C)N1`: 370 nM; for `Cc1cccc2[nH]c(-c3cccc(-c4cccc(NC(=O)Nc5ccc(Cl)c(Cl)c5)c4)c3)nc12`: 370 nM.

In the case of `Cc1cccc2[nH]cc(C3CCN(CCC4CCN(C(=O)/C=C/c5ccc(Cl)c(Cl)c5)CC4)CC3)c12`, the IC50 is 1220 nM.

Take `COc1cc(Cn2ccc3c4c(N)nc(N)nc4ccc32)cc(OC)c1OC`: the concentration for half-maximal inhibition (IC50) turned out to be 10 nM.

For the compound `COc1ccc(Oc2ccc(Nc3ccnc4ccc(C(F)(F)F)cc34)cc2)cc1OC`, the IC50 came to 1060 nM. Compared with the last compound, the IC50 is about 110-fold higher. Take `c1cncc(Oc2ccc(Nc3ccnc4cc(-c5cccc(CN6CCCCC6)c5)ccc34)cc2)c1`: the IC50 came to 120 nM. Against the preceding compound, the IC50 is about 8.8-fold lower. `O=C(Nc1ccc(C(F)(F)F)cc1)c1ccc(S(=O)(=O)NCC2CCCN(CC3CCCCC3)C2)cc1` (stereo unspecified) came in with a 50% inhibitory concentration (IC50) of 150 nM. The same measure for `Cn1cncc1C(=O)Nc1cccc(-c2cccc(-c3nc4ccc(F)cc4[nH]3)c2)c1`: 490 nM; for `COc1ccc(-c2csc3ncnc(Cl)c23)cc1`: 780 nM; for `O=C(NC1CCCCC1)N(Cc1cccc(-c2cccc(CNC3CCCC3)c2)c1)C1CCN(Cc2ccccc2)CC1`: 740 nM. The same measure for `Oc1ccc(CCCNc2nc(NCc3cccc4ccccc34)nc(N3CCNCC3)n2)cc1`: 810 nM; for `COc1ccc(OCCn2cc(C(=O)c3ccco3)c3ccccc32)cc1`: 770 nM; for `Cc1cnc(CNCc2ccc(S(=O)(=O)Nc3ccc(Oc4cccc(Cl)c4)cc3)cc2)cn1`: 770 nM. The compound `Cc1ccoc1C(=O)Nc1cccc(-c2cccc(-c3nc4ccccc4[nH]3)c2)c1` displayed an IC50 of 1220 nM. The same measure for `CN1CCc2ccc(NC(=O)Nc3cccc([N+](=O)[O-])c3)cc2C1`: 1100 nM; for `CC[C@H]1CN2CC[C@H]1C[C@H]2[C@H](O)c1cc(-c2ccc(F)cc2)nc2ccc(OC)cc12`: 50 nM. The same measure for `CS(=O)(=O)Cc1ccc(Nc2nccc(NC3CCN(c4nccc(C(F)(F)F)n4)CC3)n2)cc1`: 900 nM. In the case of `Cc1nc(Nc2ccncc2)cc(-c2ccncc2)n1`, the IC50 amounted to 730 nM. The IC50 values of the last two compounds are within 1.5-fold of each other.

Regarding `O=C(CCCCCNC(=O)c1ccc(O)c(-c2ccc(Cl)c(Cl)c2)c1)NCCc1ccc(Cl)c(Cl)c1`, the IC50 was found to be 760 nM.

Consider `CN1CCN(CCCCCCNc2c3ccccc3nc3ccccc23)CC1`, for which the IC50 amounted to 720 nM. On to `CC(C)N(Cc1ccc(-c2ccc(C(F)(F)F)cc2)cc1)C(=O)Cn1c(CCc2cccc(F)c2F)cc(=O)c2ccc(CCCN3CCCCC3)cc21`, for which the half-maximal inhibitory concentration (IC50) worked out at 740 nM. The same measure for `Nc1cccc(CNCc2cccc(-c3cccc(-c4nc5ccccc5[nH]4)c3)c2)c1`: 610 nM; for `O=C1CCCN1CCCNCc1ccc(-c2ccc(-c3nc4ccc(C(F)(F)F)cc4[nH]3)s2)cc1`: 380 nM. In the case of `COc1cc2nc(NCCN3CCOCC3)n3nc(-c4ccccc4)nc3c2cc1OC`, the IC50 is 220 nM. This IC50 lies about 1.7-fold lower than the previous one.

Take `CN1CCC[C@@H](Oc2cc3c(cc2Br)CCN3C(=O)Nc2ccc(-c3ccncc3)c(Cl)c2)C1`: the IC50 is 620 nM. In the case of `Cc1ccc(C)c(S(=O)(=O)NCC2CCN(Cc3ccc(O)cc3)CC2)c1`, the concentration for half-maximal inhibition (IC50) came to 980 nM. The same measure for `COc1ccc(-c2ncnc(C(F)(F)F)c2-c2ccc(Cl)cc2)c(O)c1`: 800 nM; for `O=C(Nc1ccc(Cl)c(C(F)(F)F)c1)N[C@H]1CCN(CCCCCNC(=O)[C@@H]2C[C@H]2c2ccc(Cl)c(Cl)c2)C1`: 1080 nM.

Compound `CCc1cc(NCc2ccncc2)nc(Nc2ccc(F)cc2)n1` registered an IC50 of 1330 nM. The same measure for `O=C(Cn1c(SCc2cccc(F)c2F)cc(=O)c2ccccc21)N(CCCn1ccnc1)Cc1ccc(-c2ccc(C(F)(F)F)cc2)cc1`: 1320 nM. The same measure for `Cc1ccc2[nH]c3c(NCCCN(C)C)ncnc3c2c1`: 650 nM; for `CCNc1cc(C(=O)N[C@@H](Cc2ccccc2)[C@H](O)CNC(C)(C)CCCC(C)C)cc(N2CCCC2=O)c1`: 830 nM; for `CS(=O)(=O)CCNCc1nc(-c2ccc3c(Nc4ccc(Cl)cc4F)ccnc3c2)cs1`: 1080 nM. `CCN(CC)C(=NCCCCCCN=C(/N=C(/N)Nc1ccc(Br)cc1)N(CC)CC)/N=C(/N)Nc1ccc(Br)cc1`: the half-maximal inhibitory concentration (IC50) came to 380 nM. Against the preceding compound, the IC50 is about 2.8-fold lower. `COc1ccc(CNC2CCN(C)CC2)cc1-c1ccc(S(=O)(=O)NC2CCC2)c(F)c1`: the 50% inhibitory concentration (IC50) is 840 nM.

In turn, `Cc1cc(NCCC(=O)Nc2ccccc2)nc(NCCc2ccccc2)n1` registered an IC50 of 850 nM. The compound `CCN(CC)CC#Cc1ccc2[nH]c(C)c(Cl)c(=O)c2c1` returned an IC50 of 700 nM. The IC50 values of the last two compounds are within 1.5-fold of each other. The same measure for `O=C(C=Cc1ccc(Cl)c(Cl)c1)NCCCCCN1CCCC(CCCNS(=O)(=O)c2cccc3cccnc23)C1` (stereo unspecified): 1000 nM. The same measure for `COc1ccc(NC(=O)/C=C/c2cc(Br)ccc2F)cc1OCCN(C(C)C)C(C)C`: 760 nM; for `COc1cc2nc(N(C)C)nc(Nc3ccc4c(cnn4Cc4ccccc4)c3)c2cc1OC`: 40 nM. The compound `COc1ccc(Cc2nc(N=C(N)Nc3ccccc3)ccc2OC)cc1` came in with an IC50 of 850 nM. Compared with the last compound, the IC50 is about 21-fold higher. The same measure for `CC(C)NC[C@@H](O)[C@H](Cc1ccccc1)NC(=O)c1cc2c3c(c1)c(C(C)C)cn3CCS(=O)(=O)N2C`: 180 nM. `O=C(NCCN1CCCC1)c1cccc(-c2ccc(-c3nc4ccccc4[nH]3)cc2)c1` registered an IC50 of 920 nM.

`COc1ccc(-c2cc3ncn(CC(=O)N4CCN(c5cccc(OC)c5)CC4)c(=O)c3s2)cc1`: the concentration for half-maximal inhibition (IC50) was found to be 1060 nM.

For the compound `CC(C)N1CCC(N(Cc2ccc(-c3ccc(C(F)(F)F)cc3)cc2)C(=O)Cn2c(CCc3cccc(F)c3F)cc(=O)c3cn(C)nc32)CC1`, the IC50 is 1170 nM. Consider `N#Cc1ccc(N2CCN(Cc3ccc(-c4ccc(-c5nc6ccc(C(F)(F)F)cc6[nH]5)cc4)cc3)CC2)nc1`, for which the IC50 came to 960 nM. The same measure for `OCCn1c(CNCCCNc2nc3ccccc3[nH]2)cc2c(Cl)cc(Cl)cc21`: 810 nM; for `O=C(Nc1cccc(C(F)(F)F)c1)c1ccc(S(=O)(=O)NCC2CCCN(CC3CCCCC3)C2)cc1` (stereo unspecified): 900 nM. In the case of `CN1CCC(NCc2ccc(-c3cnc(NCc4ccccc4)nc3)cc2)CC1`, the IC50 was 830 nM.

In turn, `Cc1ccc(NS(=O)(=O)c2cccs2)cc1-c1cccc(C(=O)Nc2ccc(F)cc2)c1` had an IC50 of 650 nM. The same measure for `COc1cccc(CN2CCC(CCOC(c3ccccc3)c3ccccc3)CC2)c1O`: 730 nM. As to `O=C(Nc1ccc(-n2ccc(C(F)(F)F)n2)cc1)c1cccs1`, the concentration for half-maximal inhibition (IC50) is 1070 nM.

Turning to `O=C(CCCc1ccccc1)Nc1cccc(N2CCC(N3CCN(c4ccccc4O)CC3)CC2)c1`, the IC50 turned out to be 790 nM. The same measure for `CNC(=O)c1cnc(Nc2ccc(OCC(O)CN(C)C)cc2)nc1Nc1cccc(OC)c1` (stereo unspecified): 320 nM. Compound `Cc1cnc(-c2ccc(NC(=O)N3CCc4cc5nccc(N6CCN7CCC[C@H]7C6)c5cc43)c3ccccc23)o1` registered an IC50 of 860 nM.

For `Cc1cccc2[nH]c(-c3cccc(-c4ccc(CNCCc5ccncc5)cc4)c3)nc12`, the IC50 was 120 nM. The same measure for `COc1cccc(Nc2nc(NCCO)c3ccccc3n2)c1`: 150 nM; for `Cc1[nH]c(C)c(-c2ccc(OCCSc3ccncc3)cc2)c(=O)c1Br`: 390 nM.

Compound `CN(Cc1cccc(F)c1)C1CCN(c2cc(NC(=O)c3ccc(F)cc3)ccn2)C1` (stereo unspecified) showed an IC50 of 1230 nM. In the case of `Cc1cc(N[C@@H](CC(C)C)C(=O)Nc2ccccc2)nc(NCC2CCCCC2)n1`, the IC50 stood at 870 nM. In turn, `COc1cc2c(cc1C(F)(F)F)N(C(=O)Nc1cc(Br)cc(-c3cccnc3)c1)CC2` had an IC50 of 860 nM. With `c1ccc(CN2CCN(c3cc(-c4cncc(-c5ccccc5)c4)nc(-c4ccccc4)n3)CC2)cc1`, the concentration for half-maximal inhibition (IC50) came out at 1040 nM. This IC50 and that of the compound before are within 1.5-fold of each other.

As usually defined, the IC50 is the point on the concentration scale where inhibition reaches its midpoint. Read a high IC50 as lower potency.
